Data taken from PMC7572827 (Clinical cancer research : an official journal of the …, 2020).

Tests used:
[1] = Plasma pharmacokinetics by LC/MS/MS; conditions: steady-state, by ZEN-3694 dose level
mCRPC = conditions: SWITCH phase 2 crossover study; cited from earlier work

CNC(=O)c1ccc(N2C(=S)N(c3ccc(C#N)c(C(F)(F)F)c3)C(=O)C2(C)C)cc1F [enzalutamide]
Impact of ZEN-3694 on concentration [1]: no significant impact | Median PFS, second line (mCRPC): 3.5 months
